Measured values published in ChEMBL document CHEMBL1201862, “PubChem BioAssay data set” (2004).
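In this assay, cells in 96-well plates receive the compound at five concentrations for 48 hours. Endpoints are linearly interpolated between the surrounding concentrations. The concentration for 50% growth inhibition is given as GI50.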 Activity calls are given as the source filed them. Cut-off read from the data, not from the text of the source: active = GI50 up to about 1.1 µM and inactive = higher.

Tests used:
Experiment in all cases: NCI tumour cell line growth inhibition, 48 h
DLD-1 = test system: DLD-1
DMS-114 = test system: DMS-114
DMS-273 = test system: DMS-273
HOP-18 = test system: HOP-18
KM-20L2 = test system: KM-20L2
LXFL 529 = test system: LXFL 529
M19-MEL = test system: M19-MEL
RXF 631 = test system: RXF 631
XF498 = test system: XF498

With `NC(=O)c1csc(C2OC(COP(=O)(O)CP(=O)(O)OCC3OC(n4cnc5c(N)ncnc54)C(O)C3O)C(O)C2O)n1` (configuration not stated) the GI50 (DLD-1) was > 100 µM (inactive), the GI50 (DMS-114) was > 100 µM (inactive) and the GI50 (DMS-273) was 85.5 µM (inactive). For the same molecule, the GI50 (HOP-18) was > 100 µM (inactive), the GI50 (KM-20L2) was > 100 µM (inactive) and the GI50 (LXFL 529) was > 100 µM (inactive). The GI50 (M19-MEL) was > 100 µM (inactive), the GI50 (RXF 631) was > 100 µM (inactive) and the GI50 (XF498) was > 100 µM (inactive).
`OCCN(CCO)c1cccc(N(CCO)CCO)n1` was tested, and the GI50 (DLD-1) was > 100 µM (inactive), the GI50 (DMS-114) was > 100 µM (inactive) and the GI50 (DMS-273) was > 100 µM (inactive). For the same molecule, the GI50 (KM-20L2) was > 100 µM (inactive), the GI50 (LXFL 529) was > 100 µM (inactive) and the GI50 (M19-MEL) was > 100 µM (inactive). The GI50 (RXF 631) was > 100 µM (inactive) and the GI50 (XF498) was 27.7 µM (inactive).
For `CCCCN(CCCC)CC(C(=O)Nc1ccccc1)/C(C)=N\NC(=O)c1ccncc1` (configuration not stated), the GI50 (DLD-1) was > 100 µM (inactive), the GI50 (DMS-114) was 63 µM (inactive) and the GI50 (DMS-273) was > 100 µM (inactive). For the same molecule, the GI50 (KM-20L2) was > 100 µM (inactive), the GI50 (M19-MEL) was 68.9 µM (inactive) and the GI50 (XF498) was > 100 µM (inactive).
`NS(=O)(=O)c1cc2c(cc1Cl)NC(C(=O)c1cc(=O)c3ccc(O)cc3o1)=NS2(=O)=O` was tested, and the GI50 (DLD-1) was > 100 µM (inactive), the GI50 (DMS-114) was > 100 µM (inactive) and the GI50 (DMS-273) was > 100 µM (inactive). The GI50 (HOP-18) was > 100 µM (inactive), the GI50 (KM-20L2) was > 100 µM (inactive) and the GI50 (M19-MEL) was > 100 µM (inactive). The GI50 (XF498) was > 100 µM (inactive).
`CC(=O)N/C(=C\c1ccc(Cc2nc3c([nH]2)C(=O)c2ccccc2C3=O)cc1)c1nc2c([nH]1)C(=O)c1ccccc1C2=O` was tested, and the GI50 (DLD-1) was > 100 µM (inactive), the GI50 (DMS-114) was > 100 µM (inactive) and the GI50 (KM-20L2) was > 100 µM (inactive). The GI50 (LXFL 529) was > 100 µM (inactive) and the GI50 (M19-MEL) was > 100 µM (inactive).
In the case of `CN(C)c1ccc(/C=C2\C[N+](C)(C)C/C(=C\c3ccc(N(C)C)cc3)C2=O)cc1`, the GI50 (DLD-1) is reported as 35.9 µM (inactive), the GI50 (DMS-114) is reported as 7.53 µM (inactive) and the GI50 (DMS-273) is reported as 5.25 µM (inactive). The GI50 (HOP-18) was 37.1 µM (inactive), the GI50 (KM-20L2) was 12.9 µM (inactive) and the GI50 (LXFL 529) was 7.55 µM (inactive). For the same molecule, the GI50 (M19-MEL) was 13.4 µM (inactive) and the GI50 (XF498) was > 10 µM (inactive).
`CC12CCCCC1C(=O)C2(Cl)Cl` (configuration not stated) was tested, and the GI50 (DLD-1) was 1.97 µM (inactive), the GI50 (DMS-273) was 2.21 µM (inactive) and the GI50 (LXFL 529) was 2.28 µM (inactive). For the same molecule, the GI50 (RXF 631) was 1.92 µM (inactive) and the GI50 (XF498) was 2.07 µM (inactive).
For `CCn1c(=O)nc2n(-c3ccccc3)c3ccccc3nc-2c1=O`, the GI50 (DLD-1) was 28.3 µM (inactive), the GI50 (DMS-114) was 11.1 µM (inactive) and the GI50 (DMS-273) was 12.7 µM (inactive). The GI50 (HOP-18) was 61.4 µM (inactive), the GI50 (KM-20L2) was 10 µM (inactive) and the GI50 (LXFL 529) was 28.4 µM (inactive). The GI50 (M19-MEL) was 10.6 µM (inactive) and the GI50 (XF498) was 4.83 µM (inactive).
In the case of `CCOC(=O)c1cc2c(cn1)[nH]c1cccc(N)c12`, the GI50 (DLD-1) is reported as > 100 µM (inactive), the GI50 (DMS-114) is reported as > 100 µM (inactive) and the GI50 (DMS-273) is reported as > 100 µM (inactive). For the same molecule, the GI50 (HOP-18) was > 100 µM (inactive), the GI50 (LXFL 529) was > 100 µM (inactive) and the GI50 (M19-MEL) was > 100 µM (inactive). For the same molecule, the GI50 (XF498) was > 100 µM (inactive).
In the case of `CC1(C)N=C(Oc2ccccc2)n2nccc2N1`, the GI50 (DLD-1) is reported as > 100 µM (inactive), the GI50 (DMS-114) is reported as > 100 µM (inactive) and the GI50 (DMS-273) is reported as 66.7 µM (inactive). For the same molecule, the GI50 (HOP-18) was > 100 µM (inactive), the GI50 (KM-20L2) was > 100 µM (inactive) and the GI50 (LXFL 529) was > 100 µM (inactive). For the same molecule, the GI50 (M19-MEL) was > 100 µM (inactive) and the GI50 (XF498) was > 100 µM (inactive).
With `Cn1ncc2cc3c(Nc4ccc(Cl)cc4)cccc3nc21` the GI50 (DLD-1) was 20.3 µM (inactive), the GI50 (DMS-114) was 12.9 µM (inactive) and the GI50 (DMS-273) was > 10 µM (inactive). For the same molecule, the GI50 (KM-20L2) was 14.7 µM (inactive), the GI50 (LXFL 529) was 15.6 µM (inactive) and the GI50 (M19-MEL) was 22.1 µM (inactive). The GI50 (RXF 631) was 17.7 µM (inactive) and the GI50 (XF498) was 8.11 µM (inactive).
With `CC(C)(C)C(=O)Cc1cc2c(cc1C(=O)O)S(=O)(=O)NC(C(C)(C)C)=C2` the GI50 (DLD-1) was > 100 µM (inactive), the GI50 (DMS-114) was > 100 µM (inactive) and the GI50 (LXFL 529) was > 100 µM (inactive). The GI50 (M19-MEL) was > 100 µM (inactive).
In the case of `O=c1[nH]c2cccccc-2c1-c1nc2ccccc2[nH]1`, the GI50 (DLD-1) is reported as 32.4 µM (inactive), the GI50 (DMS-114) is reported as 10.3 µM (inactive) and the GI50 (DMS-273) is reported as 15.5 µM (inactive). For the same molecule, the GI50 (KM-20L2) was 46.5 µM (inactive), the GI50 (LXFL 529) was 22.2 µM (inactive) and the GI50 (M19-MEL) was 34.2 µM (inactive). For the same molecule, the GI50 (XF498) was 18.5 µM (inactive).
In the case of `COc1ccccc1C(N)c1ccccc1` (configuration not stated), the GI50 (DLD-1) is reported as > 100 µM (inactive), the GI50 (DMS-114) is reported as > 100 µM (inactive) and the GI50 (DMS-273) is reported as > 100 µM (inactive). For the same molecule, the GI50 (HOP-18) was > 100 µM (inactive), the GI50 (KM-20L2) was > 100 µM (inactive) and the GI50 (LXFL 529) was > 100 µM (inactive). The GI50 (M19-MEL) was > 100 µM (inactive).
`O=C(O)C12C=CC(C1)c1ccccc12` (configuration not stated) was tested, and the GI50 (DLD-1) was > 100 µM (inactive), the GI50 (DMS-114) was > 100 µM (inactive) and the GI50 (DMS-273) was > 100 µM (inactive). For the same molecule, the GI50 (HOP-18) was > 100 µM (inactive), the GI50 (KM-20L2) was > 100 µM (inactive) and the GI50 (LXFL 529) was > 100 µM (inactive). For the same molecule, the GI50 (M19-MEL) was > 100 µM (inactive).
For `Cc1ccc(NC(=O)CCC(=O)C2CC(=O)CC/C2=N\NC(=O)c2cc3ccccc3cc2O)cc1C` (configuration not stated), the GI50 (DLD-1) was 30.5 µM (inactive), the GI50 (DMS-114) was 19.8 µM (inactive) and the GI50 (DMS-273) was 13.2 µM (inactive). The GI50 (HOP-18) was 21.8 µM (inactive), the GI50 (KM-20L2) was 27.5 µM (inactive) and the GI50 (LXFL 529) was 21.4 µM (inactive). The GI50 (M19-MEL) was 27.4 µM (inactive), the GI50 (RXF 631) was 32.6 µM (inactive) and the GI50 (XF498) was 31.1 µM (inactive).
With `COc1ccc(Cc2nccc3cc(OC)c(OC)cc23)cc1` the GI50 (DLD-1) was > 100 µM (inactive), the GI50 (DMS-114) was 29.7 µM (inactive) and the GI50 (KM-20L2) was > 100 µM (inactive). The GI50 (LXFL 529) was 28 µM (inactive), the GI50 (M19-MEL) was 98.4 µM (inactive) and the GI50 (XF498) was 23.8 µM (inactive).
In the case of `CCCCn1c(-c2ccccc2)cs/c1=N\N=C1C=C(C(C)(C)C)C(=O)C(C(C)(C)C)=C1`, the GI50 (DMS-114) is reported as > 100 µM (inactive), the GI50 (DMS-273) is reported as > 100 µM (inactive) and the GI50 (KM-20L2) is reported as > 100 µM (inactive). The GI50 (LXFL 529) was > 100 µM (inactive), the GI50 (M19-MEL) was > 100 µM (inactive) and the GI50 (RXF 631) was > 100 µM (inactive). The GI50 (XF498) was > 100 µM (inactive).
For `CC1=CC2=C(OCO1)C(=O)c1ccccc1C2=O`, the GI50 (DLD-1) was 21.5 µM (inactive), the GI50 (DMS-114) was 3.35 µM (inactive) and the GI50 (DMS-273) was 10.5 µM (inactive). For the same molecule, the GI50 (HOP-18) was 12.4 µM (inactive), the GI50 (KM-20L2) was 22.9 µM (inactive) and the GI50 (LXFL 529) was 21.7 µM (inactive). The GI50 (M19-MEL) was 1.79 µM (inactive).
In the case of `COC(=O)c1cc(C)n(NC(=O)OC(C)(C)C)c1C`, the GI50 (DLD-1) is reported as > 100 µM (inactive), the GI50 (DMS-114) is reported as > 100 µM (inactive) and the GI50 (DMS-273) is reported as > 100 µM (inactive). The GI50 (KM-20L2) was > 100 µM (inactive), the GI50 (LXFL 529) was > 100 µM (inactive) and the GI50 (M19-MEL) was > 100 µM (inactive).
In the case of `C=C1C(=O)C23C(O)CC4C(C)(C)CCC(O)C4(C)C2CC(OC(C)=O)C1[C@H]3O` (some centres not stated), the GI50 (DLD-1) is reported as 1.69 µM (inactive), the GI50 (DMS-273) is reported as 1.65 µM (inactive) and the GI50 (HOP-18) is reported as 2.27 µM (inactive). The GI50 (KM-20L2) was 3.15 µM (inactive), the GI50 (LXFL 529) was 1.07 µM (active) and the GI50 (M19-MEL) was 1.61 µM (inactive). For the same molecule, the GI50 (RXF 631) was 4.8 µM (inactive) and the GI50 (XF498) was 1.91 µM (inactive).
With `CCCCCCCCCCCCCCCC[N+](C)(C)Cc1ccc(C[N+](C)(C)CCCCCCCCCCCCCCCC)cc1` the GI50 (DLD-1) was 3.48 µM (inactive), the GI50 (DMS-114) was 1.85 µM (inactive) and the GI50 (DMS-273) was 1.98 µM (inactive). For the same molecule, the GI50 (HOP-18) was 1.67 µM (inactive), the GI50 (KM-20L2) was 3.62 µM (inactive) and the GI50 (LXFL 529) was 8.09 µM (inactive). For the same molecule, the GI50 (M19-MEL) was 2.67 µM (inactive) and the GI50 (RXF 631) was 2.19 µM (inactive).
With `Nc1n[nH]c(N)n1` [GUANAZOLE] the GI50 (DLD-1) was 9840 µM (inactive), the GI50 (DMS-114) was 1800 µM (inactive) and the GI50 (DMS-273) was 914 µM (inactive). For the same molecule, the GI50 (HOP-18) was 5610 µM (inactive), the GI50 (KM-20L2) was 7890 µM (inactive) and the GI50 (M19-MEL) was > 10000 µM (inactive). The GI50 (XF498) was 237 µM (inactive).
